In article PMC11528320, “S-MGBs bearing amidine tail groups are potent, selective antiplasmodial agents” (RSC Medicinal Chemistry, 2024):
Where two headings read alike, the source gives them in different places.

Columns and labels:
P. falciparum 3D7 = test: in vitro asexual P. falciparum imaging assay, 3D7 strain; format: cell-based
Method: (§1) The antiplasmodial in vitro assay was performed as previously described.[13] In brief, P. falciparum parasites (3D7 and Dd2 strains) were grown in RPMI-1640 medium supplemented with 25 mM HEPES, 5% AB human male serum, 2.5 mg mL^−1 Albumax II, and 0.37 mM hypoxanthine. Parasites were subjected to two rounds of sorbitol synchronization prior to compound addition. Ring stage parasites were incubated with compounds in 384-well imaging CellCarrier microplates, for 72 h at 37 °C, 90% N2, 5% CO2, 5% O2, parasites stained with 4′,6-diamidino-2-phenylindole (DAPI) and imaged using an Opera QEHS microplate confocal imaging system (PerkinElmer). Images were analysed as previously described,[13] and raw data normalized using the in-plate positive and negative controls to obtain percent inhibition, used to calculate IC50 values, through a four-parameter logistic curve fitting in Prism (GraphPad).

P. falciparum Dd2 = test: in vitro asexual P. falciparum imaging assay, Dd2 strain; format: cell-based
Method: as §1

HEK293 cells = test: HEK293 cell viability (resazurin) assay; format: cell-based, Human; conditions: for IC50 / inhibition at 80 µM: Homo sapiens; for IC50: HEK293, 72 h; for SI, HEK293/3D7: ratio of HEK293 IC50 (or relative IC50) to P. falciparum 3D7 IC50; for inhibition at 80 µM: HEK293, 72 h
Method: Cell viability was assessed using a minor modification of the protocol previously described.[14] Human embryonic kidney cells (HEK293) were maintained in Dulbecco's modified Eagle's medium supplemented with 10% foetal bovine serum.

[1] = Plasmodium falciparum, 3D7, 72 h; read-out: 3D7 IC50
[2] = Plasmodium falciparum, DD2, 72 h; read-out: Dd2 IC50
[3] = ratio of Dd2 IC50 to 3D7 IC50 (cross-resistance)

Compound	IC50 (P. falciparum 3D7; [1]) [nM]	IC50 (P. falciparum Dd2; [2]) [nM]	Dd2/3D7 (P. falciparum Dd2; [3])	IC50 (HEK293 cells) [nM]	SI, HEK293/3D7 (HEK293 cells)	inhibition at 80 µM (HEK293 cells) [%]	IC50 (P. falciparum 3D7; Plasmodium falciparum, 3D7, 72 h, read-out: 3D7 IC50) [nM]	IC50 (P. falciparum Dd2; Plasmodium falciparum, DD2, 72 h, read-out: Dd2 IC50) [nM]
CN(C)CCNC(=O)c1cc(NC(=O)c2cc(NC(=O)c3ccc(/C=C/c4cnc5ccccc5c4)cc3)cn2C)cn1C.O=C(O)C(F)(F)F [S-MGB-248]	33.4 ± 0.7	57 ± 0.6	1.7	3130	94	–	–	–
CC(C)n1cc(NC(=O)c2cc(NC(=O)c3ccc(/C=C/c4cnc5ccccc5c4)cc3)cn2C)cc1C(=O)NCCN1CCOCC1.O=C(O)C(F)(F)F [S-MGB-192]	96.3 ± 12.8	108 ± 20.6	1.1	3190	33	–	–	–
CC(C)CCc1sc(NC(=O)c2cc(NC(=O)c3ccc(/C=C/c4ccc(C(F)(F)F)cc4)cc3)cn2C)nc1C(=O)NCCCN(C)C.O=C(O)C(F)(F)F [S-MGB-377]	73.1 ± 4.7	105 ± 6.3	1.4	4300	59	–	–	–
Cn1cc(NC(=O)c2cc(NC(=O)c3ccc(/C=C/c4ccc(F)cc4)cc3)cn2C)cc1C(=O)NCCC(=N)N.O=C(O)C(F)(F)F [S-MGB-390]	532.6 ± 0.9	640.2 ± 0.6	1.2	–	>75.1	78	–	–
COc1ccc(C[C@H](N)C(=O)N[C@H]2[C@@H](O)[C@H](n3cnc4c(N(C)C)ncnc43)O[C@@H]2CO)cc1 [Puromycin, puromycin, reference compound]	41.9 ± 7.2	49.3 ± 3.5	1.2	378	9	–	–	–
CC(C)CCc1sc(NC(=O)c2cc(NC(=O)c3ccc(/C=C/c4ccc(F)cc4)nc3)cn2C)nc1C(=O)NCCCN(C)C.O=C(O)C(F)(F)F [S-MGB-376]	147.2 ± 1.4	135 ± 1.6	0.9	9100	62	–	–	–
COc1ccc(/C=C/c2ccc(C(=O)Nc3cc(C(=O)Nc4cc(C(=O)NCCC(=N)N)n(C)c4)n(C)c3)cc2)cc1.O=C(O)C(F)(F)F [S-MGB-367]	367.3 ± 0.9	620.3 ± 0.3	–	–	>108.9	81	–	–
COc1ccc2nc3cc(Cl)ccc3c(Nc3cc(CN4CCCC4)c(O)c(CN4CCCC4)c3)c2n1 [Pyronaridine, pyronaridine, reference compound]	26.7 ± 3.8	33.3 ± 6.1	1.3	3050	114	–	–	–
CC(C)CCc1sc(NC(=O)c2cc(NC(=O)c3cc(NC(=O)c4cccc(F)c4)cn3C)cn2C)nc1C(=O)NCCCN(C)C.O=C(O)C(F)(F)F [S-MGB-386]	254.9 ± 1.2	207.1 ± 1.3	0.8	–	>157	101	–	–
Cn1cc(NC(=O)c2cc(NC(=O)c3ccc(/C=C/c4ccc(C(F)(F)F)cc4)cc3)cn2C)cc1C(=O)NCCN1CCOCC1.O=C(O)C(F)(F)F [S-MGB-176]	756 ± 0.8	1236 ± 3	1.6	–	>53	80	–	–
Cn1cc(NC(=O)c2cc(NC(=O)c3ccc(NC(=O)c4cccc(F)c4)cc3)cn2C)cc1C(=O)NCCC(=N)N.O=C(O)C(F)(F)F [S-MGB-389]	857.5 ± 1.3	488 ± 1.8	0.6	–	>46.6	92	–	–
CC(C)CCc1sc(NC(=O)c2cc(NC(=O)c3ccc(/C=C/c4cccc(C(F)(F)F)c4)nc3)cn2C)nc1C(=O)NCCCN(C)C.O=C(O)C(F)(F)F [S-MGB-380]	74.7 ± 2.8	83.9 ± 3.6	1.1	8200	110	–	–	–
CN(C)c1ccc(/C=C/c2ccc(C(=O)Nc3cc(C(=O)Nc4cc(C(=O)NCCN5CCOCC5)n(C)c4)n(C)c3)cn2)cc1.O=C(O)C(F)(F)F [S-MGB-245]	161 ± 0.5	169.1 ± 0.5	1.1	2750	17	–	–	–
CC(C)CCn1cc(NC(=O)c2cc(NC(=O)c3cc(NC(=N)c4cc5ccccc5cn4)cn3C)cn2C)cc1C(=O)NCCCN(C)C.O=C(O)C(F)(F)F [S-MGB-330]	407.7 ± 0.1	636.1 ± 0.4	1.6	–	>98.1	100	–	–
CCN(CC)CCCC(C)Nc1ccnc2cc(Cl)ccc12 (centres unmarked) [Chloroquine, chloroquine, reference compound]	–	–	7.2	–	–	–	31.3 ± 9.7	225 ± 84.4
Cn1cc(NC(=O)c2cc(NC(=O)c3ccc(/C=C/c4cccc(F)c4)cc3)cn2C)cc1C(=O)NCCC(=N)N.O=C(O)C(F)(F)F [S-MGB-391]	671.3 ± 1.4	1295.5 ± 0.7	1.9	–	>59.6	100	–	–
CN(C)CCNC(=O)c1cc(NC(=O)c2cc(NC(=O)c3ccc(/C=C/c4ccc(N(C)C)cc4)nc3)cn2C)cn1C.O=C(O)C(F)(F)F [S-MGB-246]	43 ± 0.6	53 ± 0.4	1.2	3860	90	–	–	–
CC(C)CCc1sc(NC(=O)c2cc(NC(=O)c3ccc(/C=C/c4cccc(F)c4)cc3)cn2C)nc1C(=O)NCCCN(C)C.O=C(O)C(F)(F)F [S-MGB-378]	150 ± 4	171 ± 2.9	1.1	10500	70	–	–	–
COc1cccc(/C=C/c2ccc(C(=O)Nc3cc(C(=O)Nc4cc(C(=O)NCCN(C)C)n(C)c4)n(C)c3)cc2)c1.O=C(O)C(F)(F)F [S-MGB-247]	108.9 ± 0.2	138.6 ± 0.2	1.3	–	>183.7	100	–	–
CC(C)CCc1sc(NC(=O)c2cc(NC(=O)c3ccc(/C=C/c4ccc(F)cc4)cc3)cn2C)nc1C(=O)NCCCN(C)C.O=C(O)C(F)(F)F [S-MGB-379]	150 ± 2.7	148 ± 5.4	1.0	8340	56	–	–	–
COc1cccc(/C=C/c2ccc(C(=O)Nc3cc(C(=O)Nc4cc(C(=O)NCCCN(C)C)n(C)c4)n(C)c3)cc2)c1.O=C(O)C(F)(F)F [S-MGB-131]	200	254.4 ± 0.2	1.3	–	–	101	–	–
Cn1cc(NC(=O)c2cc(NC(=O)c3ccc(NC(=O)c4ccc(F)cc4)cc3)cn2C)cc1C(=O)NCCC(=N)N.O=C(O)C(F)(F)F [S-MGB-388]	181 ± 2.2	228.6 ± 2	1.3	–	>192.9	93	–	–
Cn1cc(NC(=O)c2cc(NC(=O)c3ccc(/C=C/c4ccc5nsnc5c4)cc3)cn2C)cc1C(=O)NCCN1CCOCC1.O=C(O)C(F)(F)F [S-MGB-188]	57 ± 0.1	61.9 ± 0.3	1.1	–	>193	86	–	–
Cn1cc(NC(=O)c2cc(NC(=O)c3ccc(/C=C/C(=O)Nc4ccccc4O)cc3)cn2C)cc1C(=O)NCCC(=N)N.O=C(O)C(F)(F)F [S-MGB-361]	633.9 ± 0.2	558.5 ± 0.4	0.9	–	>63.1	90	–	–
CCc1nc(N)nc(N)c1-c1ccc(Cl)cc1 [Pyrimeth-amine, pyrimethamine, reference compound]	2.69 ± 0.26	> 80000	–	3980	1478	–	–	–
CN(C)CCCNC(=O)c1cc(NC(=O)c2cc(NC(=O)c3cc(NC(=N)c4cc5ccccc5cn4)cn3C)cn2C)cn1C.O=C(O)C(F)(F)F [S-MGB-337]	95.6	101.8 ± 0.2	1.1	–	>219.7	101	–	–
